Experimental data from patent publication US7834217B2, “Method for producing oxidation product of cycloalkane” (Daicel Chemical Industries, Ltd., priority 2006, dated 2010).

Test: Solubility in water at 25° C.
Assay type: physicochemical

solubility in water (25° C.): ≤ 0.01 g/100 g-H2O
Structure (SMILES): O=C1c2ccccc2C(=O)N1O [N-hydroxyphthalimide]
